The values that follow come from patent US10881637B2 (priority 2015, dated 2021).

Read-outs that look alike come from different tables or passages of the source.

Data set [1] deals with subject with bipolar disorder. The experiment in a line: Salvia divinorum by combustion and inhalation in one subject with bipolar disorder (Example 1). The format is in vivo, human. The following applies: for mania on traditional antidepressants: same subject, very small, sub-therapeutic doses. The text has this: This method was repeated approximately 20 times with consistent results.

Data set [2] has as its system 50 other receptors, transporters and ion channels including mu- and delta-opioid receptors. The following applies: cited from earlier work.
For another data set, the target named is D2 receptor (Homo sapiens, UniProt P14416). The note with it: cited from earlier work.
Another data set addresses 5HTP2A receptors (Homo sapiens, UniProt P28223). The following applies: cited from earlier work.
For data set [3] the following is noted: cited from earlier work.

Sequence of 5HTP2A receptors (P28223 whole entry): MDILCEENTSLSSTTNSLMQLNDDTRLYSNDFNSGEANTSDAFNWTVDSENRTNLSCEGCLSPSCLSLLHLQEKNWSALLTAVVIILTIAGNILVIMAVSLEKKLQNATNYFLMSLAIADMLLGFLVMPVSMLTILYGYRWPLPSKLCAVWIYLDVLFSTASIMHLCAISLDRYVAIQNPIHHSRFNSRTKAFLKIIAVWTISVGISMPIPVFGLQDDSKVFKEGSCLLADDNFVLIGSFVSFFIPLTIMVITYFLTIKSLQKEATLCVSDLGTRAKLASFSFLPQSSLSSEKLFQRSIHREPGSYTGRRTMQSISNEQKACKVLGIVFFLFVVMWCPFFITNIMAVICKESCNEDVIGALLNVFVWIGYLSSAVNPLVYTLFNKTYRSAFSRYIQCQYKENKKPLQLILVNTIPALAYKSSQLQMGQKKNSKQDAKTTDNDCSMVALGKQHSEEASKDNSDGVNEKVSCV
Sequence of D2 receptor (P14416 whole entry): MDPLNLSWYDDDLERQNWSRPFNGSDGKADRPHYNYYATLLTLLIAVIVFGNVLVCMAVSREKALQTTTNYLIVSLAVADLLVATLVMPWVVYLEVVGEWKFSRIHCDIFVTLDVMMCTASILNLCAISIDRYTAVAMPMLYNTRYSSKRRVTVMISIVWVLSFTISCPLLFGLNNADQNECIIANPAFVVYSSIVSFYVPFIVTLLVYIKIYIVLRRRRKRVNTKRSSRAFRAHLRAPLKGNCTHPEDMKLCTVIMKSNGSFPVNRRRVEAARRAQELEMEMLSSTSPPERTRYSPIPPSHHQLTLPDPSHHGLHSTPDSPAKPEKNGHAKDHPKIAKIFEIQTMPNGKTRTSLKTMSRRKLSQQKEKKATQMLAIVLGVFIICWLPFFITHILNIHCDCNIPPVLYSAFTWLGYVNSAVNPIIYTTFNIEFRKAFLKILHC

With `CN(C)CCCC1(c2ccc(F)cc2)OCc2cc(C#N)ccc21` (centres unmarked) [celexa], the “mania on traditional antidepressants” value in data set [1] is “experienced mania”.
As to `COC(=O)[C@@H]1C[C@H](OC(C)=O)C(=O)[C@H]2[C@@]1(C)CC[C@H]1C(=O)O[C@H](c3ccoc3)C[C@]21C` [salvinorin A], the “effect on a battery of 50 other receptors, transporters and ion channels” value in data set [2] is “no significant effect”. In addition, the D2 receptor activity entry on D2 receptor is on record as “partial agonist”. The entries for the “effect on 5HTP2A receptors” value on 5HTP2A receptors and at 5HTP2A receptors (listed as Salvinorin A) were “no significant effect” and “no substantial effect”, respectively. Moreover, the “activity when administered orally” value in data set [3] (encapsulated, oral) was “inactive”. For the same molecule, in data set [3] (sublingual), the “absorption on sublingual administration” value was “inconsistent results or no absorption at all”.
For `CN[C@H]1CC[C@@H](c2ccc(Cl)c(Cl)c2)c2ccccc21` [sertraline], in data set [1], the “mania on traditional antidepressants” value is given as “experienced mania”.
For the molecule `O=C1CN=C(c2ccccc2Cl)c2cc([N+](=O)[O-])ccc2N1` [clonazepam], the “effect on the anxiolytic and antidepressant effects of Salvia divinorum alone” value in data set [1] (clonazepam oral and/or sublingual, about 1.5 mg b.i.d., along with cannabis and/or intranasal ketamine and inhaled Salvia divinorum) was “appeared to potentiate”. Besides, the “effect on anxiety, tremor or other side effects of Salvia divinorum administration” value in data set [1] (clonazepam oral and/or sublingual, along with cannabis and/or intranasal ketamine and inhaled Salvia divinorum) was “helped to further alleviate any anxiety, tremor or any other side effect”.
In the case of `CNC1(c2ccccc2Cl)CCCCC1=O` (centres unmarked) [ketamine], the “effect on the anxiolytic and antidepressant effects of Salvia divinorum alone” value in data set [1] (co-administered with inhaled Salvia divinorum, cannabis by combustion and inhalation and/or ketamine hydrochloride about 30 to about 75 mg intranasal) is given as “appeared to potentiate”.
